According to US9061023B2, “Management and treatment of benign prostatic hyperplasia” (CSIR, priority 2007, dated 2015):

Columns and labels:
[1] = tested on: steroid 5α-reductase enzyme; settings: reported in literature (ref 18); cited from earlier work
[2] = DPPH antioxidant screen (radical scavenging capacity)
Procedure: The antioxidant assay was based on the DPPH assay. DPPH is a radical and when a compound with radical scavenging properties reacts with DPPH, the purple colour disappears and a yellow colour is observed. The decolourisation of a purple colour to a yellow colour is measured by a chromameter. The intensity of the yellow colour gives an indication of antioxidant activity. […] The antioxidant activity was expressed as percentage radical scavenging capacity (RSC). […] This evaluation was carried out at the CSIR, Biosciences, Bioprospecting Platform. The 1,1-diphenyl-2-picrylhydrazyl (DPPH) assay was used to investigate the scavenging properties of extracts and pure compounds. […] This is quantified by the decrease of absorbance at wavelength 515 nm in the spectrophotometer. DPPH(purple)+([…](yellow)+(A·)n^26 Since this was a colorimetric test, the appearance of the yellow colour was measured using a chromameter. The final appearance of a more intense yellow colour was used as a good indication of a radical scavenging ability of the extract or compound and this is directly proportional to its antioxidant activity. The antioxidant activity was directly related to the total amount of phenolics and flavonoids present in that particular extract. This method was sensitive enough to indicate and monitor the presence of phenolic-type compounds. […] Spots with good radical scavenging properties turned yellow and the intensity was measured by a chromameter^5. […] The activity of the compound or extract was measured against the reference compound, epigallocatechin gallate.

[3] = target: steroid 5α-reductase enzyme (Rattus norvegicus (Rat), UniProt P24008); assay: In vitro steroid 5α-reductase assay (testosterone EIA); type: biochemical, Wistar rats; settings: for IC50: reference compound data
Procedure: In vitro biological assays of the extracts, compounds and mixtures of compounds were undertaken to determine their inhibition of the enzyme 5α-reductase. The efficacy of each isolated compound as well as the crude spray-dried extract was expressed as percentage inhibitory activity and these compounds were tested at different concentrations.
The inhibitory effect of the crude extract, the isolated compounds and a mixture of the compounds on the steroid 5α-reductase was investigated and the results are given in Table 2.
This work was performed at the MDS Pharma Services, Pharmacology Laboratories, Taiwan. The assay was an in vitro evaluation of the ability of an extract or a pure compound to inhibit the steroid 5α-reductase enzyme from metabolizing testosterone into dihydrotestosterone. This is an enzyme-immunoassay (EIA) for quantitative determination of testosterone in human serum or plasma. The significance of this type of inhibition is that it can lead to eradication of benign prostatic hyperplasia (BPH). Two distinct isozymes are found in mice, rats, monkeys and humans: type 1 and II. Each of these isozymes is differentially expressed in tissues and developmental stages. In human, type 1 steroid 5α-reductase is predominant in the sebaceous glands of most regions of skin, including scalp and liver and is responsible for approximately one third of circulating DHT. Inhibitors of steroid 5α-reductase may be of benefit in the treatment of androgenetic alopecia. This is a specific binding assay whereby the biochemical assay results were expressed as percentage inhibition. Finasteride was used as a reference compound in all experiments.
The method employed was adapted from the scientific literature to maximize reliability and reproducibility^25. The steroid 5α-reductase enzyme was isolated from the liver of Wistar rats. The test compound was incubated with 20 μg/mL of steroid 5α-reductase preparation which contains 1 μM testosterone and 50 μM NADPH in DTT buffer, pH 6.5 for 30 minutes at 37° C. The reaction was stopped by addition of 1N HCl and neutralized by 1N NaOH and testosterone was quantified using a testosterone EIA Kit. Compounds were screened at 10 μM.

5α-reductase = settings: men with smaller prostates, background; cited from earlier work

Chain of steroid 5α-reductase enzyme (Rattus norvegicus (Rat), UniProt P24008) (P24008 whole entry): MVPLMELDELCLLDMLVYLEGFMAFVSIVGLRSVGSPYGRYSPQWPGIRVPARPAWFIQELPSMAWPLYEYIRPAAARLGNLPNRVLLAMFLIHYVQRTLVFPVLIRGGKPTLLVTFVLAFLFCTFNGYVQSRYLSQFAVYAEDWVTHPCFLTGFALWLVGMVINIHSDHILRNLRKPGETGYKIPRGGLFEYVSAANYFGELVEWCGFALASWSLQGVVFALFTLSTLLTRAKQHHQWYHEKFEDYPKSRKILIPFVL

O=C(O)c1cc(O)c(O)c(O)c1 [Compound (1), 3,4,5-Trihydroxybenzoic acid]
effect against the steroid 5α-reductase enzyme in words [1]: ineffective

COC(=O)c1cc(O)c(O)c(O)c1 [Compound (2), 3,4,5-Trihydroxybenzoic acid methyl ester]
effect against the steroid 5α-reductase enzyme in words [1]: ineffective

O=c1c(O)c(-c2ccc(O)c(OC3OC(CO)C(O)C(O)C3O)c2)oc2cc(O)cc(O)c12 (centres unmarked) [Compound (3), 3,5,7-Trihydroxy-2-[4-hydroxy-3-(3,4,5-trihydroxy-6-hydroxymethyltetrahydropyran-2-yloxy)-phenyl]-chromen-4-one]
% RSC ([2]; 6.25 ppm): 41%
% RSC ([2]; 12.5 ppm): 77%
% RSC ([2]; 25 ppm): 95%
% RSC ([2]; 50 ppm): 95%
% RSC ([2]; 100 ppm): 95%
inhibition at 1 µM ([3]; test concentration 1 μM): -9%

O=C(OC1Cc2c(O)cc(O)cc2OC1c1cc(O)cc(O)c1)c1cc(O)c(O)c(O)c1 (centres unmarked) [Compound (4), 3,4,5-Trihydroxybenzoic acid 2-(3,5-dihydroxy-phenyl)-5,7-dihydroxy-chroman-3-yl ester]
inhibition at 1 µM ([3]; test concentration 1 μM): -2%

O=C1c2c(O)cc(O)cc2O[C@H](c2ccc(O)c(O[C@@H]3O[C@H](CO)[C@@H](O)[C@H](O)[C@H]3O)c2)[C@H]1O [Compound (5), (2R,3R)-,2-[3-(β-D-glucopyranosyloxy)-4-hydroxy-phenyl]-2,3-dihydro-3,5,7-trihydroxy-,4H-1-benzo-pyran-4-one]
% RSC ([2]; 6.25 ppm): 10%
% RSC ([2]; 12.5 ppm): 8%
% RSC ([2]; 25 ppm): 10%
% RSC ([2]; 50 ppm): 13%
% RSC ([2]; 100 ppm): 21%
% inhibition ([3]; test concentration 1 μM): 3%

O=C(O[C@@H]1Cc2c(O)cc(O)cc2O[C@@H]1c1cc(O)c(O)c(O)c1)c1cc(O)c(O)c(O)c1 [Epigallocatechin gallate, reference compound]
% RSC ([2]; 0.01 ppm): 8%
% RSC ([2]; 0.1 ppm): 8%
% RSC ([2]; 1 ppm): 61%
% RSC ([2]; 10 ppm): 95%
% RSC ([2]; 100 ppm): 95%

CC(C)(C)NC(=O)[C@H]1CC[C@H]2[C@@H]3CC[C@H]4NC(=O)C=C[C@]4(C)[C@H]3CC[C@]12C [Finasteride]
reduction in erection rate (5α-reductase): up to 8%
reduction in semen volume (5α-reductase): 4%
reduction in sex drive (5α-reductase): 6%
IC50 [3]: 0.025 µM
inhibition at 0.025 µM ([3]; test concentration 0.025 μM): 50%

CCCCC/C=C\C/C=C\C/C=C\CCCCC(=O)O [γ-Linolenic acid, reference compound]
IC50 [3]: 14 µM
